From ChEMBL document CHEMBL4265905, “Synthesis and biological evaluation of novel Jiyuan Oridonin A-1,2,3-triazole-azole derivatives as antiproliferative agents” (Eur J Med Chem, 2018)
Calls of active or inactive are those of the source. The calls are words filed in the database; no cut-off is given here.

Assays:
[1] = system: SMMC-7721; assay: Induction of apoptosis in human SMMC7721 cells assessed as viable cells at 2 uM after 12 hrs by Annexin V-FITC/PI staining based flow cytometry (reference value: 95.4%); assay type: functional; details: SMMC-7721, 12 h, read-out: Activity
[2] = system: SMMC-7721; assay: Antiproliferative activity against human SMMC7721 cells after 72 hrs by MTT assay; assay type: functional, cell-based; details: SMMC-7721, 72 h
[3] = organism: Homo sapiens; assay: Inhibition of Wnt signaling pathway in human SMMC7721 cells assessed as increase in APC expression level up to 2 uM after 48 hrs by Western blot analysis; assay type: cell-based
[4] = system: MGC-803; assay: Antiproliferative activity against human MGC803 cells after 72 hrs by MTT assay; assay type: functional, cell-based; details: MGC-803, 72 h
[5] = system: SMMC-7721; assay: Cell cycle arrest in human SMMC7721 cells assessed as accumulation at G1 phase at 1 uM after 12 hrs by propidium iodide staining based flow cytometry (reference value: 39.51%); assay type: functional
[6] = system: SMMC-7721; assay: Induction of apoptosis in human SMMC7721 cells assessed as late apoptotic cells at 0.5 uM after 12 hrs by Annexin V-FITC/PI staining based flow cytometry (reference value: 0.9%); assay type: functional
[7] = system: SMMC-7721; assay: Induction of apoptosis in human SMMC7721 cells assessed as late apoptotic cells at 2 uM after 12 hrs by Annexin V-FITC/PI staining based flow cytometry (reference value: 0.9%); assay type: functional
[8] = system: SMMC-7721; assay: Cell cycle arrest in human SMMC7721 cells assessed as accumulation at G2 phase at 4 uM after 12 hrs by propidium iodide staining based flow cytometry (reference value: 18.97%); assay type: functional
[9] = system: SMMC-7721; assay: Cell cycle arrest in human SMMC7721 cells assessed as accumulation at S phase at 2 uM after 12 hrs by propidium iodide staining based flow cytometry (reference value: 36.98%); assay type: functional
[10] = system: SMMC-7721; assay: Induction of apoptosis in human SMMC7721 cells assessed as necrotic cells at 1 uM after 12 hrs by Annexin V-FITC/PI staining based flow cytometry (reference value: 0.8%); assay type: functional
[11] = system: SMMC-7721; assay: Cell cycle arrest in human SMMC7721 cells assessed as accumulation at G1 phase at 4 uM after 12 hrs by propidium iodide staining based flow cytometry (reference value: 39.51%); assay type: functional
[12] = system: A549; assay: Antiproliferative activity against human A549 cells after 72 hrs by MTT assay; assay type: functional, cell-based; details: A549, 72 h
[13] = system: MCF7; assay: Antiproliferative activity against human MCF7 cells after 72 hrs by MTT assay; assay type: functional, cell-based; details: MCF7, 72 h
[14] = organism: Homo sapiens; assay: Inhibition of Wnt signaling pathway in human SMMC7721 cells assessed as increase in GSK3beta phosphorylation level up to 2 uM after 48 hrs by Western blot analysis; assay type: cell-based
[15] = system: SMMC-7721; assay: Inhibition of colony formation in human SMMC7721 cells after two weeks by crystal violet staining based assay; assay type: functional, cell-based
[16] = system: SMMC-7721; assay: Induction of apoptosis in human SMMC7721 cells assessed as late apoptotic cells at 1 uM after 12 hrs by Annexin V-FITC/PI staining based flow cytometry (reference value: 0.9%); assay type: functional
[17] = system: PC-3; assay: Antiproliferative activity against human PC3 cells after 72 hrs by MTT assay; assay type: functional, cell-based; details: PC-3, 72 h
[18] = system: SMMC-7721; assay: Induction of apoptosis in human SMMC7721 cells assessed as early apoptotic cells at 2 uM after 12 hrs by Annexin V-FITC/PI staining based flow cytometry (reference value: 2.8%); assay type: functional
[19] = system: SMMC-7721; assay: Inhibition of cell migration in human SMMC7721 cells after 24 hrs by wound healing based inverted microscopic analysis; assay type: functional
[20] = system: SMMC-7721; assay: Cell cycle arrest in human SMMC7721 cells assessed as accumulation at G2 phase at 1 uM after 12 hrs by propidium iodide staining based flow cytometry (reference value: 18.97%); assay type: functional
[21] = system: SMMC-7721; assay: Cell cycle arrest in human SMMC7721 cells assessed as accumulation at S phase at 1 uM after 12 hrs by propidium iodide staining based flow cytometry (reference value: 36.98%); assay type: functional
[22] = organism: Homo sapiens; assay: Inhibition of Wnt signaling pathway in human SMMC7721 cells assessed as reduction in Dvl2 expression level up to 2 uM after 48 hrs by Western blot analysis; assay type: cell-based
[23] = system: SMMC-7721; assay: Induction of apoptosis in human SMMC7721 cells assessed as necrotic cells at 2 uM after 12 hrs by Annexin V-FITC/PI staining based flow cytometry (reference value: 0.8%); assay type: functional
[24] = system: SMMC-7721; assay: Induction of apoptosis in human SMMC7721 cells assessed as early apoptotic cells at 0.5 uM after 12 hrs by Annexin V-FITC/PI staining based flow cytometry (reference value: 2.8%); assay type: functional
[25] = system: SMMC-7721; assay: Induction of apoptosis in human SMMC7721 cells assessed as early apoptotic cells at 1 uM after 12 hrs by Annexin V-FITC/PI staining based flow cytometry (reference value: 2.8%); assay type: functional
[26] = system: L02; assay: Cytotoxicity against human HL7702 cells up to 72 hrs by MTT assay; assay type: cell-based; details: L02, 72 h
[27] = system: SMMC-7721; assay: Cell cycle arrest in human SMMC7721 cells assessed as accumulation at G2 phase at 2 uM after 12 hrs by propidium iodide staining based flow cytometry (reference value: 18.97%); assay type: functional
[28] = system: ECa-109 cell line; assay: Antiproliferative activity against human ECA109 cells after 72 hrs by MTT assay; assay type: functional, cell-based; details: ECa-109, 72 h
[29] = system: SMMC-7721; assay: Cell cycle arrest in human SMMC7721 cells assessed as accumulation at G1 phase at 2 uM after 12 hrs by propidium iodide staining based flow cytometry (reference value: 39.51%); assay type: functional
[30] = system: SMMC-7721; assay: Induction of apoptosis in human SMMC7721 cells assessed as necrotic cells at 0.5 uM after 12 hrs by Annexin V-FITC/PI staining based flow cytometry (reference value: 0.8%); assay type: functional
[31] = system: SMMC-7721; assay: Cell cycle arrest in human SMMC7721 cells assessed as accumulation at S phase at 4 uM after 12 hrs by propidium iodide staining based flow cytometry (reference value: 36.98%); assay type: functional
[32] = organism: Homo sapiens; assay: Inhibition of Wnt signaling pathway in human SMMC7721 cells assessed as reduction in beta-catenin expression level up to 2 uM after 48 hrs by Western blot analysis; assay type: cell-based
[33] = system: SMMC-7721; assay: Induction of apoptosis in human SMMC7721 cells assessed as viable cells at 0.5 uM after 12 hrs by Annexin V-FITC/PI staining based flow cytometry (reference value: 95.4%); assay type: functional; details: SMMC-7721, 12 h, read-out: Activity
[34] = system: SMMC-7721; assay: Induction of apoptosis in human SMMC7721 cells assessed as viable cells at 1 uM after 12 hrs by Annexin V-FITC/PI staining based flow cytometry (reference value: 95.4%); assay type: functional; details: SMMC-7721, 12 h, read-out: Activity
[35] = system: SMMC-7721; assay: Inhibition of colony formation in human SMMC7721 cells assessed as colony formation efficiency at 2 uM after two weeks by crystal violet staining based assay; assay type: functional; parameters: scale not given: the % may be the effect or the level left

C=C1C(=O)[C@]23[C@H](O)[C@H]1C[C@H](O)[C@H]2[C@]12CCCC(C)(C)[C@H]1C[C@H]3O[C@@H]2OCCCn1cc(CN2C(=O)S/C(=C/C)C2=O)nn1
viability at 2 µM [1]: 68.2% | IC50 [2]: 200 nM | inhibition [3]: Active | IC50 [4]: 600 nM | Activity [5]: 45.85% | Activity [6]: 5.4% | Activity [7]: 2.5% | Activity [8]: 3.97% | Activity [9]: 12.93% | Activity [10]: 1.2% | Activity [11]: 75.69% | IC50 [12]: 3.5 µM | IC50 [13]: 1500 nM | inhibition [14]: Active | inhibition [15]: Dose-dependent effect | Activity [16]: 5.8% | IC50 [17]: 5 µM | Activity [18]: 29.2% | inhibition [19]: Dose-dependent effect | Activity [20]: 37.61% | Activity [21]: 13.84% | inhibition [22]: Active | Activity [23]: 0.1% | Activity [24]: 7.2% | Activity [25]: 13.7% | IC50 [26]: 18.1 µM | Activity [27]: 26.8% | IC50 [28]: 2700 nM | Activity [29]: 54.97% | Activity [30]: 1.1% | Activity [31]: 22.27% | inhibition [32]: Active | viability at 0.5 µM [33]: 86.2% | viability at 1 µM [34]: 79.3% | Activity [35]: 5.7%
